In patent US20220184081A1, “ANTIPRURITIC AGENT USING PAC1 RECEPTOR ANTAGONIST” (KAGOSHIMA UNIVERSITY, priority 2019, published 2022):
No end group written: not given here.

How the values were obtained:
[1] = system: PACAP-induced itch behavior in mice; assay: Itch behavior induced by PACAP intradermal administration; format: in vivo, mouse; settings: for biting, licking or scratching behavior induced by PACAP (100 pmol) intradermal administration: simultaneous intradermal administration with PACAP, 0.01 to 1 nmol, FIG. 7A, 8, 9
From the text: SLN indicates intradermal administration of normal saline. DMSO (10% solution, dissolved in normal saline) is a solvent for PA-8.
SLN indicates intradermal administration of normal saline. VEH (10% DMSO solution, dissolved in normal saline) is a solvent for PA-8 and the compound 2o.
SLN indicates intradermal administration of normal saline. VEH (10% DMSO solution, dissolved in normal saline) is a solvent for PA-9 and the compound 3d.

[2] = system: chloroquine-induced itch behavior in mice; assay: Itch behavior induced by chloroquine intradermal administration; format: in vivo, mouse; settings: intrathecal pre-administration (i.t., 10 minutes before i.d.), 1 nmol; chloroquine 100 μg/10 μL; FIG. 10
Description: (§1) Chloroquine (100 μg/10 μL) was intradermally injected into the waist of each mouse (intradermal injection, i.d.). The reaction of biting, licking or scratching the injected site was defined as itch behavior, and the behavioral time was counted every 5 minutes. […] DMSO (10% solution, dissolved in normal saline) is a solvent for PA-8 or PA-9.

mouse PAC1 receptor = target: T1, mouse PAC1 receptor (Mus musculus, UniProt P70205); assay: CREB phosphorylation by PACAP stimulus, Western blot, PAC1/CHO cells; format: cell-based; settings: PAC1/CHO cells; for CREB phosphorylation by PACAP (1 nM): compound 10 pM to 10 nM for 30 minutes before PACAP, FIG. 4A, 4C, 4D, 5
T1 construct: expressed in transfected cells; host or cells: CHO cells
T1 sequence (P70205 21-496): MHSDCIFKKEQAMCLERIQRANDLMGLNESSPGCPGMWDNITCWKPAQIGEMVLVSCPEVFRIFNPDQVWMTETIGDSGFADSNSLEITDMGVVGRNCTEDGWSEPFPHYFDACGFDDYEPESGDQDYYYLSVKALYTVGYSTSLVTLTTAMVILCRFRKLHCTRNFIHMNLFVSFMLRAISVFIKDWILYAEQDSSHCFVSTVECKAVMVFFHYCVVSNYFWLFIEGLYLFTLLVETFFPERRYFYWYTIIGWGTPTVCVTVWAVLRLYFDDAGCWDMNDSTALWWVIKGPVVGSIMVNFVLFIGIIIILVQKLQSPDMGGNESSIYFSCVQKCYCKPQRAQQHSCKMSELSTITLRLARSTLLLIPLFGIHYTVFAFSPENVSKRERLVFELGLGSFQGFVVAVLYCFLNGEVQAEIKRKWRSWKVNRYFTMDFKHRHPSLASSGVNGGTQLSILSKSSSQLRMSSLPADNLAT
Description: The effect of each compound on the phosphorylation of CREB (cAMP-responsive element-binding protein) produced by a PACAP stimulus was examined by Western blot analysis using an anti-phosphorylated CREB (pCREB) antibody with a mouse PAC1 receptor-expressing CHO cells (PAC1/CHO cells) and a mouse VPAC1 receptor-expressing CHO cells (VPAC1/CHO cells).
Specifically, treatment with a compound (PA-8, compound 2j and compound 2o) at 10 pM to 10 nM or a solvent therefor, DMSO (VEH: 0.1% DMSO-containing phosphate buffer solution) was performed for 30 minutes, 1 nM PACAP was then added, and protein was recovered within 30 minutes after a PACAP stimulus.
The effect of each compound on the phosphorylation of CREB (cAMP-responsive element-binding protein) produced by a PACAP stimulus was examined by Western blot analysis using an anti-phosphorylated CREB (pCREB) antibody with a mouse PAC1 receptor-expressing CHO cells (PAC1/CHO cells).

psoriasis mouse model = assay: Psoriasis mouse model (imiquimod); format: in vivo, ICR mice; settings: 30 mg/kg p.o. 30 minutes before 1 hour video observation; FIG. 14
Description: The present test was carried out with reference to the method of van der Fits et al. that is a test system published as a method for evaluating itch in animals (van der Fits L., Mounts S., Voerman J S A., et al.: Imiquimod-Induced Psoriasis-Like Skin Inflammation in Mice Is Mediated via the IL-23/IL-17 Axis, J. Immunol., 182, 5836-5845, 2009).
Five-week-old ICR mice (20 mice) were each placed in a cage, and were then conditioned for 1 week. Thereafter, three days before initiation of the test, the waist of each mouse was shaved. Then, 62.5 mg of commercially available imiquimod cream (5% Beselna Cream; MOCHIDA PHARMACEUTICAL CO., LTD.) was applied onto the shaved waist skin of the mice once a day for 5 days, so as to produce imiquimod-induced psoriasis model. Twenty-four hours after the final application of the cream (Day 5), video observation was carried out for 1 hour. The shaved 20 mice were divided into 5 groups (4 mice per group), namely, a 30 mg/kg PA-8 oral (p.o.) administration group, a 30 mg/kg compound 2o oral (p.o.) administration group, a 30 mg/kg PA-9 oral (p.o.) administration group, a 30 mg/kg compound 3d (p.o.) administration group, and a solvent administration group (VEH: oral administration of 10% DMSO aqueous solution). Oral administration was carried out 30 minutes before initiation of the video observation.

[3] = system: Compound 48/80-induced itch behavior in mice; assay: Itch behavior induced by Compound 48/80 intradermal administration; format: in vivo, mouse; settings: intrathecal pre-administration (i.t., 10 minutes before i.d.), 1 nmol; Compound 48/80 100 μg/10 μL; FIG. 11
Description: as §1, with “Compound 48/80” for “Chloroquine”

[4] = system: atopic dermatitis mouse model; assay: Atopic dermatitis mouse model (DNFB); format: in vivo, ICR mice; settings: 30 mg/kg p.o. 30 minutes before 1 hour video observation; FIG. 13
Description: The present test was carried out with reference to the method of Kitamura et al. that is a test system published as a method for evaluating itch in animals (Kitamura A., Takata R., Aizawa S., et al.: A murine model of atopic dermatitis can be generated by painting the dorsal skin with hapten twice 14 days apart, Scientific Rep., 8: 5988, 2018).
Five-week-old ICR mice (30 mice) were each placed in a cage, and were then conditioned for 1 week. Thereafter, three days before initiation of the test, the waist of each mouse was shaved. On the experiment start date, for the purpose of destroying the function of skin barrier, tape stripping was carried out, and 0.15% 2,4-dinitrofluorobenzene (DNFB) solution [acetone/olive oil (3:1)] was applied to the shaved waist of each mouse, using a 100-μIL pipette. Seven days later, the 0.15% DNFB solution was applied thereto once again, and two hours later, video observation was carried out for 1 hour. The shaved 30 mice were divided into 5 groups (6 mice per group), namely, a 30 mg/kg PA-8 oral (p.o.) administration group, a 30 mg/kg compound 2o oral (p.o.) administration group, a 30 mg/kg PA-9 oral (p.o.) administration group, a 30 mg/kg compound 3d (p.o.) administration group, and a solvent administration group (VEH: oral administration of 10% DMSO aqueous solution). Oral administration was carried out 30 minutes before initiation of the video observation.
An outline of the procedures of a behavioral experiment using the atopic dermatitis mouse model is shown in FIG. 12, and the results obtained by evaluating the time spent in scratching of each group are shown in FIG. 13.

[5] = system: serotonin (5-HT)-induced itch mouse model; assay: Serotonin (5-HT)-induced itch mouse model; format: in vivo; settings: intrathecal pre-administration 30 minutes before 5-HT 50 nmol i.d.; PA-8 0.1 or 1 nmol; P6-38 100 pmol; FIG. 1
Description: 5-HT (50 nmol, 10 μL) was intradermally injected into the waist of each mouse (intradermal injection, i.d.). The reaction of the mice to bite, lick or scratch the injected site was defined as an itch behavior, and the action time was measured every 5 minutes. […] SLN indicates the effects obtained in the case of administering normal saline instead of 5-HT. ACSF is an abbreviation of an artificial cerebrospinal fluid, which was a solvent for P6-38 and PA-8.

[6] = system: patients with atopic dermatitis; settings: patients with high severity, insufficient effect of topical steroids/tacrolimus; cited from earlier work
mice = assay: Itch behavior upon waist intradermal administration of peptide; format: in vivo, mouse; settings: waist intradermal administration 10 μL; PACAP 1 to 1,000 pmol; VIP 100 pmol; FIG. 6
From the text: Accordingly, it is considered that this effect is mediated by the PAC1 receptors (FIG. 6).

Row | Molecule | biting, licking or scratching behavior induced by PACAP (100 pmol) intradermal administration [1] | CREB phosphorylation by PACAP (1 nM) (mouse PAC1 receptor) | itch behavior induced by application of imiquimod (time spent in scratching) (psoriasis mouse model) | itch behavior induced by the DNFB treatment (time spent in scratching) [4] | also measured
1 | O=C(NCCc1c[nH]cn1)C1CC(=O)N(c2n[nH]c3ccccc23)C1 (centres unmarked) [PA-9] | suppressed in a dose-dependent manner | suppressed depending on the concentration | significantly suppressed | significantly suppressed | chloroquine-induced itch behavior [2]: almost completely suppressed; Compound 48/80-induced itch behavior [3]: almost completely suppressed
2 | CCOc1cccc(C2CC(=O)Nc3nc(N)[nH]c(=O)c32)c1 (centres unmarked) [compound 2j, 2-Amino-5-(3-ethoxyphenyl)-5,8-dihydro-3H,6H-pyrido[2,3-d]pyrimidine-4,7-dione] | – | suppressed depending on the concentration | – | – | –
3 | Nc1nc2c(c(=O)[nH]1)C(c1cccc(OC(F)(F)F)c1)CC(=O)N2 (centres unmarked) [compound 2o, 2-Amino-5-(3-trifluoromethoxyphenyl)-5,8-dihydro-3H,6H-pyrido[2,3-d]pyrimidine-4,7-dione] | suppressed in a dose-dependent manner | suppressed CREB phosphorylation | significantly suppressed | significantly suppressed | effect of suppressing CREB phosphorylation compared with PA-8 (mouse PAC1 receptor; 10 pM to 10 nM): slightly stronger effect of suppressing CREB phosphorylation than PA-8
4 | O=C(NCCc1c[nH]cn1)C1CC(=O)N(c2n[nH]c3c(Cl)cccc23)C1 (centres unmarked) [compound 3d, N-[2-(1H-imidazol-4-yl)ethyl]-1-(7-chloro-1H-indazol-3-yl)-5-oxo-3-pyrrolidinecarboxamide] | suppressed in a dose-dependent manner | suppressed depending on the concentration | significantly suppressed | significantly suppressed | –
5 | O=C1CC[C@@]2(O)[C@H]3Cc4ccc(O)c5c4[C@@]2(CCN3CC2CC2)[C@H]1O5 [naltrexone] | – | – | – | – | itch behavior induced by PACAP (100 pmol) intradermal administration ([1]; subcutaneous administration 1 mg/kg 15 minutes before PACAP, FIG. 7B): significantly suppressed
6 | PACAP 6-38 | – | – | – | – | 5-HT-induced itch behavior (bite, lick or scratch the injected site, action time) [5]: did not provide significant effects
7 | dupilumab: human type anti-human IL-4/IL-13 receptor monoclonal antibody | – | – | – | – | share of patients for whom the drug is effective [6]: approximately 40%
8 | vasoactive intestinal peptide (HSDAVFTDNYTRLRKQMAVKKYLNSILN; ends and bridges not checked; UniProt P01282 125-152, looked up) [VIP] | – | – | – | – | itch behavior (biting, licking or scratching the administered site) caused by the peptide (mice): such effect was not observed
